Data reported in patent US7276337B2, “Compositions and methods for visual ribonuclease detection assays” (Integrated DNA Technologies, Inc., priority 2000, dated 2007).

Tests used:
Ribonuclease A = molecular target: T1, Ribonuclease A (Bos taurus, UniProt P61823); test: Visual detection ribonuclease assay, cleavage of Substrate ODN by RNase A; type: biochemical, mammalian; set-up: key to Sensitivity of Substrate ODN to Ribonuclease A, relative signal intensity: +++ = maximum intensity; ++ = moderate intensity; + = faint but above background; − = negative (identical to background); settings: visual inspection, UV excitation, Substrate 500 nM, 37° C. 60 minutes
T1 sequence (P61823 27-150): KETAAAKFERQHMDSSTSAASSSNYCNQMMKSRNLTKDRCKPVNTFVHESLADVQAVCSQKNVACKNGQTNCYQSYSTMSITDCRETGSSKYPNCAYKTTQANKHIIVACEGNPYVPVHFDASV
Experimental: Nuclease assays were conducted using the methods of the invention. SEQ ID NO:2 and SEQ ID NO:30 oligonucleotides were individually mixed in 1× Assay Buffer at a concentration of 500 nM (50 pmoles ODN in 100 ul volume) in thin-walled, UV transparent microtubes. RNase A (1 ul, diluted to 0;1 ug/ul) was added to the respective Assay Mixes. […] Assays were set up directly in microtubes as follows:
Assay Mixes were incubated at room temperature for 10 minutes. Assays were visually examined for fluorescence emission directly in the assay tubes without further manipulation. Tubes were suspended above an ultraviolet light source, visually inspected, and photographed using a digital camera. […] The “positive” and “control” reactions appeared markedly different and were easily distinguished. […] The “positive” and “control” reactions were not markedly different to visual inspection.
(§1) Nuclease assays were conducted using the method of the invention with both visual and fluorometric detection methods. Substrates were individually mixed in 1× Assay Buffer at a concentration of 50 nM (50 pmoles oligonucleotide in 1 ml volume) for fluorometric detection or at a concentration of 500 nM (50 pmoles of oligonucleotide in 100 ul volume) for visual detection. Test nucleases were added to respective Assay Mixes beginning at 1 ul stock reagent and proceeding with a 1:10 serial dilution until undetectable. Reaction mixes were incubated at 37° C. for 60 minutes. Fluorometric detection was performed as outlined in Example 2. Visual detection was performed as outlined in Example 1.
Table 6: Sensitivity of different Substrate ODNs to Ribonuclease A. A series of Substrate ODNs were synthesized and tested for sensitivity to RNase A degradation. Stock enzyme was serial diluted to achieve final concentrations of 1 ng/ml, 100 pg/ml, and 10 pg/ml as indicated. Reactions were examined for fluorescence emission by visual inspection using an ultraviolet (UV) light source for excitation. Results were scored as +++, ++, +, or − based on relative signal intensity.
(§2) It is commonly accepted that fluorometry provides for high sensitivity. To be useful, the visual method must also offer high sensitivity. Assays were conducted using the method of the invention with visual detection. Substrate SEQ ID NO:30 was mixed in 1× Assay Buffer at a concentration of 500 nM (50 pmoles ODN in 100 ul volume) in thin-walled, UV transparent tubes. […] Dilutions of stock RNase A, RNase 1, and RNase T1 were made in water. Undiluted and diluted nuclease (1 ul) was added to respective 100 ul Assay Mixes resulting in final dilution factors of 10^−2, 10^−3, 10^−4, 10^−5, 10^−6, and 10^−7. Assays were incubated at room temperature for 10 minutes and visually examined for fluorescence emission with UV excitation. […] The experiment took about 30 minutes to perform, including 15 minutes to set-up serial dilutions, 10 minutes incubation, and 5 minutes to visualize and photograph. Thus the method of the invention allows for a rapid, simple, and convenient visual assay for the presence of ribonuclease activity.

Ribonuclease T1 = molecular target: T2, Ribonuclease T1 (Aspergillus oryzae, UniProt P00651); test: Visual detection ribonuclease assay, cleavage of Substrate ODN by RNase T1; type: biochemical; set-up: key to Sensitivity of Substrate ODN to Ribonuclease T1, relative signal intensity: +++ = maximum intensity; ++ = moderate intensity; + = faint but above background; − = negative (identical to background); settings: visual inspection, UV excitation, Substrate 500 nM, 37° C. 60 minutes
T2 sequence (P00651 27-130): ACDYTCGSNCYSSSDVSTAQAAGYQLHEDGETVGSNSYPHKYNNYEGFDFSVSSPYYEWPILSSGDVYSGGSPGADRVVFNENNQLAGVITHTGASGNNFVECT
Experimental: as §1
Table 7: Sensitivity of different Substrate ODNs to Ribonuclease T1. A series of Substrate ODNs were synthesized and tested for sensitivity to RNase T1 degradation. Stock enzyme was serial diluted to achieve final concentrations of 0.001 units/ml, 0.0001 units/ml, and 0.00001 units/ml as indicated. Reactions were examined for fluorescence emission by visual inspection using an ultraviolet (UV) light source for excitation. Results were scored as +++, ++, +, or − based on relative signal intensity.
as §2

[1] = tested on: Substrate oligonucleotide SEQ ID NO:30; test: RNase testing of commercially obtained reagents, visual detection; type: biochemical; set-up: key: +++ = maximum intensity; ++ = moderate intensity; + = faint but above background; − = negative (identical to background); settings: reagent diluted 1:10 with Assay Buffer, 50 pmoles Substrate SEQ ID NO:30, 60 minutes at 37° C., UV
Experimental: Enzymes were obtained from New England Biolabs (NEB) or Ambion as indicated. Test sample (10 ul) was mixed with 1× buffer (90 ul) for a final volume of 100 ul with 50 pmoles of Substrate SEQ ID NO:30 in 0.5 ml RNase-free microtubes. Assay Mixes were incubated 60 minutes at 37° C. and visually examined under UV excitation for fluorescence emission. After scoring for results, 1 ul (1 ug) of RNase A was added to each tube. The Assay was incubated an additional 5 minutes at 37° C. and re-scored. The addition of RNase A represents a control for the absence of an Assay inhibitor and validates negative results. The “plus RNase A” control was omitted whenever the primary assay was already positive.
Table 9: RNase testing of commercially available reagents. A series of commercially available reagents were diluted 1:10 with Assay Buffer to a final volume of 100 ul. An RNase detection assay was performed using the method of the invention with Substrate oligonucleotide SEQ ID NO:30. Reactions were examined for fluorescence emission by visual inspection using an ultraviolet (UV) light source for excitation. Results were scored as +++, ++, +, or − based on relative signal intensity. As a control, RNase A (1 ug) was added to negative reactions and the Assay was re-scored. ND=not done.

| Substance | Sensitivity of Substrate ODN to Ribonuclease A, relative signal intensity (Ribonuclease A; RNase A 10 pg/ml) | Sensitivity of Substrate ODN to Ribonuclease A, relative signal intensity (Ribonuclease A; RNase A 100 pg/ml) | Sensitivity of Substrate ODN to Ribonuclease A, relative signal intensity (Ribonuclease A; RNase A 1 ng/ml) | Sensitivity of Substrate ODN to Ribonuclease T1, relative signal intensity (Ribonuclease T1; RNase T1 10^−3 units/ml) | Sensitivity of Substrate ODN to Ribonuclease T1, relative signal intensity (Ribonuclease T1; RNase T1 10^−4 units/ml) | Sensitivity of Substrate ODN to Ribonuclease T1, relative signal intensity (Ribonuclease T1; RNase T1 10^−5 units/ml) | Assay Results (RNase activity in reagent, relative signal intensity) [1] |
| --- | --- | --- | --- | --- | --- | --- | --- |
| 5′ Fluorescein-AcguA-Dabcyl 3′ (NACGUAN; 5' fluorescein and 3' Dabcyl labels, nucleotide chemistry not given here) [SEQ ID NO:15] | − | + | +++ | +++ | + | − |  |
| 5′ Fluorescein-AcuaA-Dabcyl 3′ (NACUAAN; 5' fluorescein and 3' Dabcyl labels, nucleotide chemistry not given here) [SEQ ID NO:17] | − | + | +++ | − | − | − |  |
| 5′ Fluorescein-AgaAA-Dabcyl 3′ (NAGAAAN; 5' fluorescein and 3' Dabcyl labels, nucleotide chemistry not given here) [SEQ ID NO:9] | − | − | − | + | + | − |  |
| 5′ Fluorescein-AgcuAA-Dabcyl 3′ (NAGCUAAN; 5' fluorescein and 3' Dabcyl labels, nucleotide chemistry not given here) [SEQ ID NO:11] | − | − | ++ | + | − | − |  |
| 5′ Fluorescein-AgcuaA-Dabcyl 3′ (NAGCUAAN; 5' fluorescein and 3' Dabcyl labels, nucleotide chemistry not given here) [SEQ ID NO:22] | − | ++ | +++ | +++ | + | − |  |
| 5′ Fluorescein-AguAA-Dabcyl 3′ (NAGUAAN; 5' fluorescein and 3' Dabcyl labels, nucleotide chemistry not given here) [SEQ ID NO:7] | − | − | + | + | − | − |  |
| 5′ Fluorescein-AgucAA-Dabcyl 3′ (NAGUCAAN; 5' fluorescein and 3' Dabcyl labels, nucleotide chemistry not given here) [SEQ ID NO:10] | − | − | ++ | + | − | − |  |
| 5′ Fluorescein-AgucaA-Dabcyl 3′ (NAGUCAAN; 5' fluorescein and 3' Dabcyl labels, nucleotide chemistry not given here) [SEQ ID NO:23] | − | + | +++ | ++ | − | − |  |
| 5′ Fluorescein-AuagA-Dabcyl 3′ (NAUAGAN; 5' fluorescein and 3' Dabcyl labels, nucleotide chemistry not given here) [SEQ ID NO:16] | − | ++ | +++ | +++ | +++ | − |  |
| Hind III: commercial enzyme from New England Biolabs, sold as RNase-free |  |  |  |  |  |  | − |
| Super Taq: commercial enzyme reagent from Ambion, sold as RNase-free |  |  |  |  |  |  | − |
